Measurements: patent US7507739B2, “6-[(substituted)phenyl]triazolopyrimidines as anticancer agents” (Wyeth, priority 2003, dated 2009)
pIC50: −log10 of the molar value.

Tests used:
[1] = tested on: pure tubulin; assay: Tubulin polymerization test with pure tubulin without GTP; type: biochemical, bovine; conditions: no GTP
Procedure: (§1) Medium is RPMI-1640 with L-glutamine, supplemented with 10% heat-inactivated fetal calf serum, 100 units/ml penicillin, and 100 μg/ml streptomycin (Gibco, Grand Island, N.Y.). Microtubule-associated protein (MAP)-rich tubulin, containing about 70% tubulin and 30% MAPs (#ML113), and highly purified tubulin (>99% pure, #TL238), both from bovine brain, are obtained from Cytoskeleton, Inc., Denver, Colo. PEM buffer (80 mM piperazine-N,N′-bis[2-ethanesulfonic acid], pH 6.9, 1 mM ethylene glycol-bis(β-aminoethyl ether)-N,N,N′,N′-tetraacetic acid, 1 mM magnesium chloride) and guanosine 5′-triphosphate (GTP) are also obtained from Cytoskeleton. [3H]paclitaxel, specific activity 14.7 Ci/mmol, is purchased from Moravek Biochemicals (Brea, Calif.). [^3H]vinblastine, specific activity 9.60 Ci/mmol and MicroSpin G-50 columns are obtained from Amersham Biosciences (Piscataway, N.J.). […] Other reagents are obtained from Sigma (St. Louis, Mo.).
(§2) Two variations of this procedure are done, one using MAP-rich tubulin and one using pure tubulin.
The procedure with pure tubulin is similar except for the following changes. […] The supernatant after centrifugation is dispensed to a 96-well plate already containing compounds. Each compound is tested in duplicate at six serial 3-fold dilutions starting at 24.3 μM. The plate reader is thermostated at 35°.

[2] = tested on: MAP-rich tubulin; assay: Tubulin polymerization test with MAP-rich tubulin; type: biochemical, bovine; conditions: 0.3 μM compound, 20 min, fold enhancement over control
Procedure: as §1, §2
MAP-rich tubulin is dissolved in ice-cold PEM buffer containing 1 mM GTP (GPEM buffer) at a concentration of 1.3 mg/mL. The solution is centrifuged at top speed in an Eppendorf model 5415C microcentrifuge (Brinkmann Instruments, Westbury, N.Y.) for 10 min at […] immediately before use. The tubulin solution is added to wells of a ½-area 96-well plate (Costar No. 3696, Corning, Inc., Corning, N.Y.) already containing the compounds of interest. Each compound is tested in duplicate at a final concentration of 0.3 μM in a volume of 110 μL per well. The final DMSO concentration in all wells is 0.3%. Control reactions, which received compound solvent only, are done in quadruplicate. The plate is put in a SpectraMax Plus plate reader (Molecular Devices Corp. Sunnyvale, Calif.) thermostated at 24° and the absorbance of each well at 340 nm, a measure of the appearance of turbidity due to tubulin polymer formation, is determined every minute for 60 minutes. The absorbance at time 0 for each well is subtracted from each of the subsequent absorbance readings for that well, and then the duplicates are averaged.
In this assay, control reactions with MAP-rich tubulin show an S-shaped absorbance profile characterized by three phases: first, a lag phase during which no change in absorbance occurs; second, a polymerization phase in which absorbance increases; and third, a plateau phase in which absorbance has reached a maximum and little or no further change occurs. Polymerization enhancers such as paclitaxel and docetaxel shorten or eliminate the lag phase, increase the rate of the polymerization phase, and often increase the height of the plateau. […] The compounds of this invention have a taxane-like effect on the polymerization reaction. This has been expressed quantitatively in Table 5 by dividing the mean A340 of each sample at 20 min by the mean A340 of the control at 20 min to give a fold enhancement over control. […] Examples of this invention have factors ranging up to 8.1, with the majority in the 5 to 6-fold range.

[3] = tested on: tubulin heterodimer; assay: Competitive binding test, [3H]vinblastine; set-up: species or system bovine; conditions: [3H]vinblastine 100 nM
Procedure: as §1
(§3) The binding of examples of this invention to highly purified tubulin is studied by competitive inhibition methods. […] To study possible competition at the taxane site, on the other hand, polymerized tubulin (microtubules) is used because paclitaxel binds preferentially to microtubules.
(§4) Highly purified tubulin is dissolved in PEM buffer without GTP and used at a final concentration of 1.0 to 1.3 mg/ml (10 to 13 μM). […] These solutions are incubated at 24° for 1 hr and then applied to MicroSpin G-50 columns which are centrifuged for 2 min at 3000 rpm in an Eppendorf 5415C microfuge. An aliquot of each column effluent (containing tubulin and bound radioligand) is mixed with scintillation fluid and counted in a liquid scintillation spectrometer. […] The ability of the competitor to inhibit the binding of the radioligand is expressed as a percentage of control binding in the absence of any competitor.

[4] = tested on: tubulin heterodimer; assay: Competitive binding test, [3H]colchicine; set-up: species or system bovine; conditions: [3H]colchicine 50 nM
Procedure: as §1, §3, §4

[5] = tested on: microtubules; assay: Competitive binding test, [3H]paclitaxel; set-up: species or system bovine; conditions: [3H]paclitaxel 2.1 μM, competitor 20 μM (5 μM for unlabeled paclitaxel)
Procedure: as §1, §3
For competition with [^3H]paclitaxel, highly purified tubulin is dissolved in PEM buffer containing 0.75 M glutamate and 25 μM dideoxy-GTP; final protein concentration is 0.25 to 0.35 mg/mL (2.5 to 3.5 μM). These conditions foster the rapid formation of short, stable microtubule polymers (Hamel, E., del Campo, A. A., and Lin, C. M. Stability of tubulin polymers formed with dideoxyguanosine nucleotides in the presence and absence of microtubule-associated proteins. J. Biol. Chem., 259: 2501-2508, 1984). This solution is incubated for 30 min at 37° to allow microtubules to form. Then [^3H]paclitaxel (final concentration of 2.1 μM, 1.2 Ci/mmol) and competitor (final concentration of 20 μM, except 5 μM for unlabeled paclitaxel) are added to aliquots of the polymerized tubulin solution and incubation at 37° is continued for another 30 min. […] The reactions are then centrifuged at top speed in an Eppendorf 5415C microfuge for 20 min at room temperature in order to pellet the microtubule protein. Triplicate aliquots of each supernatant are mixed with scintillation fluid and counted in a liquid scintillation spectrometer. From the amount of radioactivity in the supernatants and the measured total starting radioactivity, the amount of [^3H]paclitaxel bound to pelleted microtubule protein is calculated. The ability of each competitor to inhibit radioligand binding to pelleted protein is expressed as a percent of controls without any competitor.

[6] = tested on: COLO 205 cells; assay: MTS cytotoxicity test with COLO 205 cells; type: cell-based, human; conditions: 3 days
In short: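 COLO 205 human colon carcinoma cells, 1000 per well, exposed 3 days at 37° C to nine 2-fold dilutions, typical final top concentration 5 μM. MTS absorbance normalized to time-0 plate; IC50 is concentration giving colour yield midway between untreated and fully killed controls.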

[7] = tested on: KB-8-5 cells; assay: MTS cytotoxicity test with KB-8-5 cells (moderate P-glycoprotein); type: cell-based, human
Source text: (§5) Human cancer cell lines, unless otherwise noted, are obtained from the American Type Culture Collection (Rockville, Md.). The following drug-sensitive parental cell lines, and their derived drug-resistant counterparts, are obtained from the originators as listed: (a) S1 (parental line from a subclone of human colon carcinoma line LS174T) and derived S1-M1-3.2 (herein called S1-M1) which expresses the MXR drug transporter protein, are provided by Dr. L. Greenberger, Wyeth Research (Rabindran, S. K., He, H., Singh, M., Brown, E., Collins, K. I., Annable, T., and Greenberger, L. M. Reversal of a novel multidrug resistance mechanism in human colon carcinoma cells by fumitremorgin C. Cancer Res., 58:5850-5858,1998); (b) parental HL-60 human promyelocytic leukemia line and derived HL-60/ADR, which expresses the MRP1 drug transporter protein, are provided by Dr. M. Center, University of Kansas (McGrath, T., and Center, M. S. Adriamycin resistance in HL60 cells in the absence of detectable P-glycoprotein. Biochem. Biophys. […] J. Biol. Chem., 261: 7762-7770,1986) via Dr. L. Greenberger, Wyeth Research.
(§6) The assay, which is sold in kit form by Promega (Madison, Wis.; CellTiter 96 AQueous Non-Radioactive Cell Proliferation Assay), is based on the conversion by viable cells, but not by dead cells, of the tetrazolium salt, MTS (3-(4,5-dimethylthiazol-2-yl)-5-(3-carboxymethoxyphenyl)-2-(4-sulphophenyl)-2H-tetrazolium, inner salt), into a water-soluble colored formazan which is detected by spectrophotometry. Compounds are tested at nine concentrations, in order to determine IC50 values. For the test procedure, cells are harvested by trypsinization (or, in the case of non-adherent cells, by simple resuspension), washed, counted and distributed to wells of 96-well flat-bottom microtiter plates at 1000 cells per well in 200 μL of medium. In addition, one row of wells on a separate plate received cells as above (“time 0” plate). All plates are incubated at 37° in humidified 5% CO2 in air for about 24 hr.
(§7) On day 2, compounds for test are diluted and added to wells. Compounds are dissolved in DMSO at 10 mg/mL. For each compound, nine serial 2-fold dilutions are prepared in DMSO. Ten μL of each dilution in DMSO is transferred to 100 μL of medium, mixed well, and then 5 μL of this dilution is transferred in quadruplicate to wells containing cells. […] Plates are returned to the incubator for three days. At the time of drug addition to the experimental plates, the MTS assay is run on the “time 0” plate. This produced the “time 0 MTS value” which is related to the number of viable cells per well at the time of drug addition.
(§8) After three days of culture with test compounds (day 5 overall), the MTS assay is done on all wells of the experimental plates. The absorbance values of the quadruplicate sample wells are averaged and divided by the average of the “time 0” values. […] The nine values for each compound are plotted against concentration, and the concentration that produced a relative color yield half way between the maximum and minimum is taken as the IC50 value.
(§9) The KB lines express different amounts of the P-glycoprotein (MDR1) membrane pump which produces resistance to the action of many cytotoxic compounds, including paclitaxel and vincristine. The parental KB line expresses no P-glycoprotein, KB-8-5 expresses moderate levels of the protein, and KB-V1 expresses very high levels.

[8] = tested on: HL-60 cells; assay: MTS cytotoxicity test with HL-60 cells; type: cell-based; conditions: Homo sapiens; HL-60 cells, MTS; read-out: IC50 HL-60
Source text: as §5, §6, §7, §8
(§10) HL-60/ADR cells overexpress the multidrug resistance protein MRP1 which mediates resistance to some chemotherapeutics (Gottesman, M. M., Fojo, T., and Bates, S. E. Multidrug resistance in cancer: role of ATP-dependent transporters. Nature Rev. Cancer, 2: 48-58, 2002). The IC50 values of representative examples of this invention, as well as reference compounds, on HL-60/ADR are compared to values on the sensitive parental HL-60 line.

[9] = tested on: HL-60/ADR cells; assay: MTS cytotoxicity test with HL-60/ADR cells (MRP1); type: cell-based, human; conditions: IC50 on HL-60/ADR cells/IC50 on HL-60 cells
Source text: as §5, §6, §7, §8, §10

[10] = tested on: KB-V1 cells; assay: MTS cytotoxicity test with KB-V1 cells (very high P-glycoprotein); type: cell-based, human; conditions: IC50 on KB VI cells/IC50 on KB cells
Source text: as §5, §6, §7, §8, §9

[11] = tested on: S1-M1 cells; assay: MTS cytotoxicity test with S1-M1 cells (MXR); type: cell-based, human; conditions: for Ratio: IC50 on S1-M1 cells/IC50 on S1 cells
Source text: as §5, §6, §7, §8
as §10, with “S1-M1” for “HL-60/ADR”, “MXR transporter” for “multidrug resistance protein MRP1”, “Miltidrug” for “Multidrug”, “S1” for “HL-60”

[12] = tested on: S1 cells; assay: MTS cytotoxicity test with S1 cells; type: cell-based; conditions: Homo sapiens
Source text: as §5, §6, §7, §8
as §10, with “S1-M1” for “HL-60/ADR”, “MXR transporter” for “multidrug resistance protein MRP1”, “Miltidrug” for “Multidrug”, “S1” for “HL-60”

[13] = tested on: KB cells; assay: MTS cytotoxicity test with KB cells; type: cell-based; conditions: Homo sapiens; KB cells, MTS; read-out: IC50 KB
Source text: as §5, §6, §7, §8, §9

SMILES: C[C@H](Nc1c(-c2c(F)cc(OCCCN3CCOCC3)cc2F)c(Cl)nc2ncnn12)C(F)(F)F.Cl [Example 11a, 5-Chloro-6-[2,6-difluoro-4-(3-morpholin-4-ylpropoxy)phenyl]-N-[(1S)-2,2,2-trifluoro-1-methylethyl][1,2,4]triazolo[1,5-a]pyrimidin-7-amine Hydrogen chloride]
- absorbance increase, polymerization of pure tubulin ([1]; 2.7 μM): no effect
- absorbance increase, polymerization of pure tubulin ([1]; 8.1 μM): lower and less rapid increase
- A340 at 0 min ([1]; 24.3 μM): 0
- A340 at 5 min ([1]; 24.3 μM): 0.24
- A340 at 10 min ([1]; 24.3 μM): 0.24
- A340 at 15 min ([1]; 24.3 μM): 0.23
- A340 at 20 min ([1]; 24.3 μM): 0.22
- absorbance increase, polymerization of pure tubulin ([1]; 24.3 μM, first 5 min): rapid increase in absorbance
- A340 Compound/A340 Control [2]: 6.8
- [3H]Vinblastine binding, percent of control without competitor, Mean [3]: 12%
- [3H]Colchicine binding, percent of control without competitor, Mean [4]: 121%
- [3H]Paclitaxel binding, percent of control without competitor, Mean [5]: 107%
- pIC50 [6]: 7.29

SMILES: O=C1c2c(O)ccc(O)c2C(=O)c2c(NCCNCCO)ccc(NCCNCCO)c21 [Mitoxantrone, reference compound]
- pIC50 ([7]; Homo sapiens, KB-8-5 cells, MTS, read-out: IC50 KB 8.5): 7.57
- Ratio 8.5/KB ([7]; IC50 on KB 8.5 cells/IC50 on KB cells): 1.1
- pIC50 [8]: 8.02
- Ratio [9]: 17
- Ratio VI/KB [10]: 77
- pIC50 ([11]; Homo sapiens, S1-M1 cells, MTS, read-out: IC50 S1-M1): < 5.52
- Ratio [11]: >300
- Ratio ([11]; listed as mitoxantrone): > 300
- pIC50 [12]: 8.00
- pIC50 [13]: 7.60
